Assay results taken from patent EP0308783A2, “Antimycotic preparations” (BAYER AG, priority 1987, dated 1989).
≈ marks a conversion by molar mass, not a printed value.

Key:
Test in all cases: antimycotic in-vitro activity, serial dilution test
Format in all cases: cell-based
Candida albicans = settings: Fleischextrakt-Traubenzucker-Bouillon, 28°C to 37 C, 24 to 96 hours, inoculum 5 x 10^3 to 10^4 germs/ml, read-out: MHK-Werte in µg/ml Närmedium Candida albicans
Description: (§1) Die in-vitro-Prüfungen wurden im Reihenverdünnungstest mit Keiminokula von durchschnittlich 5 x 10^3 bis 10^4 Keimen/mi Substrat durchgeführt. Als Nährmedium dienten • a) für Dermatophyten und Schimmelpilze: Sabouraud's milieu d'epreuve • b) für Hefen: Fleischextrakt-Traubenzucker-Bouillon.
(§2) Die Bebrütungstemperatur betrug 28°C bis 37 C, die Bebrütungsdauer lag bei 24 bis 96 Stunden bei Hefen und 96 Stunden bei Dermatophyten und Schimmelpilzen.

Trichophyton mentagr. = settings: Sabouraud's milieu d'epreuve, 28°C to 37 C, 96 hours, inoculum 5 x 10^3 to 10^4 germs/ml, read-out: MHK-Werte in µg/ml Närmedium Trichophyton mentagr.
Description: as §1, §2

Torulopsis glabrata = settings: Nakaseomyces glabratus; Fleischextrakt-Traubenzucker-Bouillon; 28°C to 37 C; 24 to 96 hours; inoculum 5 x 10^3 to 10^4 germs/ml; read-out: MHK-Werte in µg/ml Närmedium Torulopsis glabrata
Description: as §1, §2

Aspergillus fumigatus = settings: Sabouraud's milieu d'epreuve, 28°C to 37 C, 96 hours, inoculum 5 x 10^3 to 10^4 germs/ml, read-out: MHK-Werte in µg/ml Närmedium Aspergillus fumigatus
Description: as §1, §2

Microsporum canis = settings: Sabouraud's milieu d'epreuve, 28°C to 37 C, 96 hours, inoculum 5 x 10^3 to 10^4 germs/ml, read-out: MHK-Werte in µg/ml Närmedium Microsporum canis
Description: as §1, §2

MIC (Candida albicans) [µg/mL]	MIC (Trichophyton mentagr.) [µg/mL]	MIC (Torulopsis glabrata) [µg/mL]	MIC (Aspergillus fumigatus) [µg/mL]	MIC (Microsporum canis) [µg/mL]	SMILES
16 (≈ 37.7 µM)	64 (≈ 151 µM)	64 (≈ 151 µM)	> 64		OC(Cn1cncn1)(c1ccc(Cl)cc1)C1(Oc2ccc(Cl)cc2Cl)CC1 (stereo not drawn) [(B), 1-(4-Chlorphenyl)-1-[1-(2,4-dichiorphenoxy)-cycloprop-1-yl]-2-(1,2,4-triazol-1-yl)-ethan-1-ol]
> 64	> 64		> 64		OC(Cn1cncn1)(c1ccc(Cl)cc1)C1(F)CC1 (stereo not drawn) [(A), 1-(4-Chlorphenyl)-1-(1-fluor-cycloprop-1-yl)-2-(1,2,4-triazol-1-yl)-ethan-1-ol]
16 (≈ 48.8 µM)	< 1	16 (≈ 48.8 µM)	2 (≈ 6.09 µM)	< 1	OC(COc1ccc(Cl)cc1)(Cn1cncn1)C1(Cl)CC1 (stereo not drawn) [Beispiel 1, 2-(1-Chlorcyclopropyl)-1-(4-chlorphenoxy)-3-(1,2,4-triazol-1-yl)-propan-2-ol]
